Data as given in ChEMBL document CHEMBL1201862, “PubChem BioAssay data set” (2004).
The source made the active and inactive calls. Unless noted, the rule behind the calls is not given here.

Columns and labels:
[1] = Fluorescence polarization-based biochemical high throughput dose response assay for activators of the Protein Kinase A-R1A (PKA-R1A) complex. [Related pubchem assays (depositor defined):AID504704, AID504707, AID504799, AID504800]
[2] = Fluorescence polarization-based biochemical high throughput dose response assay for activators of the Protein Kinase A-R2B (PKA-R2B) complex. [Related pubchem assays (depositor defined):AID504700, AID504704, AID504796, AID504797]
HEK293 [3] = assay: NOD1 signaling inhibitors, primary screen, cell-based, luminescence, uHTS (AID 1578); type: functional; details: Homo sapiens
HEK293 [4] = assay: cells; type: functional, cell-based; details: Homo sapiens
HEK293 [5] = assay: cells; type: functional, cell-based; details: Homo sapiens; remark: listed apart in the source
[6] = target: Nucleotide-binding oligomerization domain-containing protein 2 (Homo sapiens, UniProt Q9HC29); assay: NOD2 signaling inhibitors, cell-based, luminescence, uHTS, HEK293 (AID 1566); type: functional
HEK293 [7] = assay: NOD2 signaling inhibitors in MDP-stimulated cells, cell-based, uHTS, luminescence (AID 2001); type: functional; details: Homo sapiens
HEK293 [8] = assay: cells; type: functional, cell-based; details: Homo sapiens; remark: listed apart in the source
[9] = target: Glycogen synthase kinase-3 beta (Homo sapiens, UniProt P49841); assay: Inhibition of Human GSK-3 beta Activity Measured in Biochemical System Using Microfluidics - 2063-05_Inhibitor_Dose_DryPowder_Activity. [Related pubchem assays (depositor defined):AID2709]
[10] = target: Lysine-specific demethylase 4A (Homo sapiens, UniProt O75164); assay: JMJD2A histone demethylase inhibitors, dose response, selectivity assay for GASC-1 inhibitor project, biochemical, DELFIA europium, cherry-picked samples (AID 488840)
[11] = target: Lysine-specific demethylase 4C (Homo sapiens, UniProt Q9H3R0); assay: GASC-1 (JMJD2C) histone demethylase inhibitors, dose response, biochemical, DELFIA europium, cherry-picked samples (AID 488835); type: functional
A-375 [12] = assay: MITF: Counter assay: A375 proliferation Measured in Cell-Based System Using Plate Reader - 2084-03_Inhibitor_Dose_DryPowder_Activity. [Related pubchem assays (depositor defined):AID488944]; type: functional; details: Homo sapiens
A-375 [13] = assay: A375 melanoma cell viability reduction, dose response, counter-screen for MITF modulator project, cherry-pick samples, set 2 (AID 540335); type: functional, cell-based; details: Homo sapiens
[14] = target: UDP-galactopyranose mutase (Mycobacterium tuberculosis, UniProt P9WIQ1); assay: Inhibitors of Mycobacterium tuberculosis UDP-galactopyranose mutase (UGM) enzyme Measured in Biochemical System Using Plate Reader - 2105-02_Inhibitor_Dose_CherryPick_Activity. [Related pubchem assays (depositor defined):AID504439]
Trypsin = Trypsin (Sus scrofa, UniProt P00761); assay: porcine trypsin inhibitors, dose response, selectivity assay for Rce1 protease inhibitor project, biochemical, quenched peptide fluorescence, cherry-pick (AID 488789)
CAAX prenyl protease 2 = target: T1, CAAX prenyl protease 2 (Saccharomyces cerevisiae S288c, UniProt Q03530); type: biochemical
T1 sequence (Q03530 whole entry): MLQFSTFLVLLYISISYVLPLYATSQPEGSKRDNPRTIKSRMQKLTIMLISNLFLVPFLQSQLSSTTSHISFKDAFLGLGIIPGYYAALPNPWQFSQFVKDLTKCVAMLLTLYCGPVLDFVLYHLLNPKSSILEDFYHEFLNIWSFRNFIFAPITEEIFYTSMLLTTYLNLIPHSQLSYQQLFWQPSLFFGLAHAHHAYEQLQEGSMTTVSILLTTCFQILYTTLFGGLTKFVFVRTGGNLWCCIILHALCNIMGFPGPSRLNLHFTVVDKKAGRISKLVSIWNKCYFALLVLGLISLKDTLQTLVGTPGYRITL

CAAX prenyl protease 1 = CAAX prenyl protease 1 (Saccharomyces cerevisiae S288c, UniProt P47154); assay: Ste24 protease inhibitors, dose response, biochemical, S. cerevisiae, plate reader, cherry-pick (AID 488815)
Candida albicans = assay: single-agent growth inhibition of C. albicans, dose response, counter-screen for antifungal drug resistance project, C. albicans CaCi-2, dry powder (AID 488802); type: functional, organism-based
NIH3T3 = assay: cytotoxicity in NIH-3T3 fibroblasts, dose response, cytotoxicity control for antifungal drug resistance project, cell-based, Alamar Blue, fluconazole, dry powder (AID 488809); type: functional; details: Mus musculus
[15] = blockers of SFLLRN-triggered platelet ATP secretion – cell-based, human platelets, luminescence, dry powder, dose response (AID 493100); type: functional
[16] = Luminescence Cell-Based Dose Response Follow up to Identify Inhibitors of Platelet Dense Granule Release. [Related pubchem assays (depositor defined):AID1663, AID1678, AID1889, AID2519]; type: functional
[17] = target: T2, Tyrosine-protein phosphatase non-receptor type 7 (Homo sapiens, UniProt P35236); type: functional
T2 sequence (P35236 whole entry): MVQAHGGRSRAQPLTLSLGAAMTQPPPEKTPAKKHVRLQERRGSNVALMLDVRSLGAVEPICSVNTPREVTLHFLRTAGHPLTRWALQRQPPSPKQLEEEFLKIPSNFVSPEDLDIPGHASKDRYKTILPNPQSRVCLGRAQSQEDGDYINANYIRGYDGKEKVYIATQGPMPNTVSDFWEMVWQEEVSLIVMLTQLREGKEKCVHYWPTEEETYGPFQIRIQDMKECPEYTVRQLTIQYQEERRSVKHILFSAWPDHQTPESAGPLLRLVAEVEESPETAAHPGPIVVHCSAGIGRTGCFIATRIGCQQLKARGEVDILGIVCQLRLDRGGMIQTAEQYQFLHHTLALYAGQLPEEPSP

[18] = target: T3, Tyrosine-protein phosphatase non-receptor type 22 (Homo sapiens, UniProt Q9Y2R2); type: functional
[19] = target: T3, Tyrosine-protein phosphatase non-receptor type 22; type: functional; remark: listed apart in the source
[20] = target: T4, Heat shock factor protein 1 (Mus musculus, UniProt P38532); assay: HSF1 potentiators in luciferase reporter cells, confirmation, cell-based, NIH3T3, luminescence, dose retest (AID 435004); type: functional;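 also: stress induced by proteasome inhibitor MG132 added 30 min after compound; luciferase reporter driven by HSF1 response element in NIH3T3 cells; actives raise luminescence as potentiators of the MG132 stress response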
T4 sequence (P38532 whole entry): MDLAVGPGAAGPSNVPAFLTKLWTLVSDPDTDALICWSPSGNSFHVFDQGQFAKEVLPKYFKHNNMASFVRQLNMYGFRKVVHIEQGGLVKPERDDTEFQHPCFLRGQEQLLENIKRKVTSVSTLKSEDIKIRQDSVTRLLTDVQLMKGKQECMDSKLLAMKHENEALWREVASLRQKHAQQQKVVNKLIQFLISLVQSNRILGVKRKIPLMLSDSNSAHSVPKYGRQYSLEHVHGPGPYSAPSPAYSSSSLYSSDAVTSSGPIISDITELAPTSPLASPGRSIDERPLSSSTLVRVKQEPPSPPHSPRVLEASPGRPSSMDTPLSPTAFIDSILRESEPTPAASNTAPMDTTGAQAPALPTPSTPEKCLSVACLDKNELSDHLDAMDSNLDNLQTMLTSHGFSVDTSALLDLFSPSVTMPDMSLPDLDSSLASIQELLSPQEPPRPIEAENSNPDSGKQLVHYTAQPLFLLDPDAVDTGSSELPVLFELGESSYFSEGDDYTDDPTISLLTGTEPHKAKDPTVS

T3 sequence (Q9Y2R2 whole entry): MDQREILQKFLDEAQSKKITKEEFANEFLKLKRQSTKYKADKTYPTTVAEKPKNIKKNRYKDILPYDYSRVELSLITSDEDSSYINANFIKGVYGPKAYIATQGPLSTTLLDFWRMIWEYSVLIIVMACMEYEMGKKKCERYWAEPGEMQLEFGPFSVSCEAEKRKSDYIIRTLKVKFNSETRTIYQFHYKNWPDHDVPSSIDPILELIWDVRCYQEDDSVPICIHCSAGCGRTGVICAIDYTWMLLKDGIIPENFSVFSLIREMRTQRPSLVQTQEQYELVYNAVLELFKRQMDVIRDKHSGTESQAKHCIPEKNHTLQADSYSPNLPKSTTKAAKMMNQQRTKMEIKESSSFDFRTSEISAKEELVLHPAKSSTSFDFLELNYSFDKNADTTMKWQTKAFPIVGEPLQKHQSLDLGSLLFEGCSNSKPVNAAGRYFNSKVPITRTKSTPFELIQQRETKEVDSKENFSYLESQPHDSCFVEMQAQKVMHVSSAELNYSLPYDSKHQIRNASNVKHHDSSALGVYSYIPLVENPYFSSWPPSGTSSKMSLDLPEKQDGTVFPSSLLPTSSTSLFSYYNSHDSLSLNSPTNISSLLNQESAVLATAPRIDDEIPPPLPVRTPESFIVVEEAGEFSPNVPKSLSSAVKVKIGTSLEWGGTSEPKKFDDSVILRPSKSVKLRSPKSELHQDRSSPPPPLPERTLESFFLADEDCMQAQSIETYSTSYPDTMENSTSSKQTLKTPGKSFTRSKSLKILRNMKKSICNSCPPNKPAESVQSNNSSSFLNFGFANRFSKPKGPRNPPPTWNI
Chain of UDP-galactopyranose mutase (P9WIQ1 whole entry): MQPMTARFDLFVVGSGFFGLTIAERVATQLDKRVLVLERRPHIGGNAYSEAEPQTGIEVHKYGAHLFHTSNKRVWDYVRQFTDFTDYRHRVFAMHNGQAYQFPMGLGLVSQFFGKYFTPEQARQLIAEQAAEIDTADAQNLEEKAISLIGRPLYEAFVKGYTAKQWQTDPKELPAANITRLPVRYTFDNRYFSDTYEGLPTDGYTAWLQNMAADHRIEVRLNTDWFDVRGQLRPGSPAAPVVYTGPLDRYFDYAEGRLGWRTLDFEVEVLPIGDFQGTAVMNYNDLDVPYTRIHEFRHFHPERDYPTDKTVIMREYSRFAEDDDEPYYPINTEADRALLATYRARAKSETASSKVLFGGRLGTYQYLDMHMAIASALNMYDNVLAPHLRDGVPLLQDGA
Chain of Trypsin (P00761 whole entry): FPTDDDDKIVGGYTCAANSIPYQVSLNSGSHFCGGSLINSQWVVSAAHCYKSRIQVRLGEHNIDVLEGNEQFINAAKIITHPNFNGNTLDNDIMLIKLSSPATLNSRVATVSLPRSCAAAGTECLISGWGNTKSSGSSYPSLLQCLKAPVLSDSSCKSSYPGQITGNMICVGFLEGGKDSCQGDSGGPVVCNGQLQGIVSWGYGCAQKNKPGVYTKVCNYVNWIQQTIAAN
Chain of Nucleotide-binding oligomerization domain-containing protein 2 (Q9HC29 whole entry, the tested form may be a part): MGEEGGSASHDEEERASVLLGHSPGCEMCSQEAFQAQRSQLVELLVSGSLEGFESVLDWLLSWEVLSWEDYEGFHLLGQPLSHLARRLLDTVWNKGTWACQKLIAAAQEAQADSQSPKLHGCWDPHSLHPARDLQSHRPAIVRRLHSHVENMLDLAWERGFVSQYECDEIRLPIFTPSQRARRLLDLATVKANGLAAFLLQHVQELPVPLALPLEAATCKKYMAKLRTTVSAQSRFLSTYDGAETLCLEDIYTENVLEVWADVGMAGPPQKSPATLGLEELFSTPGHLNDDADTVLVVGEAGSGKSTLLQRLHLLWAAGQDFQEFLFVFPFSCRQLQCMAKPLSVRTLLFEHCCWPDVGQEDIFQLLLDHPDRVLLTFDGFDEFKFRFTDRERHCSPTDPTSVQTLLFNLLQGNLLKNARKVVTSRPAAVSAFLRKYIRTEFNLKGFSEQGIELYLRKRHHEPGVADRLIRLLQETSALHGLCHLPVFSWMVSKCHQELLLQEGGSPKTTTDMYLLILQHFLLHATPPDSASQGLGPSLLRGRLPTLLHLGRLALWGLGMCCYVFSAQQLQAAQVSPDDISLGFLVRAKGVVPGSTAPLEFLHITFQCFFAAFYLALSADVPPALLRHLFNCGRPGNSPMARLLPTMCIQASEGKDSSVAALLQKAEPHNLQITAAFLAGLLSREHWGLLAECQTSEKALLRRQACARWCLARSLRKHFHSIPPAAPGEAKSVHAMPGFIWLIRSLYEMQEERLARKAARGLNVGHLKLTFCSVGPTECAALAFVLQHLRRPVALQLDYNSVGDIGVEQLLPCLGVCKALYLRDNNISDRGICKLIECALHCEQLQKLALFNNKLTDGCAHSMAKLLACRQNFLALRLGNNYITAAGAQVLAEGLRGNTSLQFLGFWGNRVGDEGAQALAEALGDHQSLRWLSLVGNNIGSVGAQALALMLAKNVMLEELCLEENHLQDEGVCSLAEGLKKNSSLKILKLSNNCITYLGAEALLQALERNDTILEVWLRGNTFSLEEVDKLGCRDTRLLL
Chain of Lysine-specific demethylase 4A (O75164 whole entry): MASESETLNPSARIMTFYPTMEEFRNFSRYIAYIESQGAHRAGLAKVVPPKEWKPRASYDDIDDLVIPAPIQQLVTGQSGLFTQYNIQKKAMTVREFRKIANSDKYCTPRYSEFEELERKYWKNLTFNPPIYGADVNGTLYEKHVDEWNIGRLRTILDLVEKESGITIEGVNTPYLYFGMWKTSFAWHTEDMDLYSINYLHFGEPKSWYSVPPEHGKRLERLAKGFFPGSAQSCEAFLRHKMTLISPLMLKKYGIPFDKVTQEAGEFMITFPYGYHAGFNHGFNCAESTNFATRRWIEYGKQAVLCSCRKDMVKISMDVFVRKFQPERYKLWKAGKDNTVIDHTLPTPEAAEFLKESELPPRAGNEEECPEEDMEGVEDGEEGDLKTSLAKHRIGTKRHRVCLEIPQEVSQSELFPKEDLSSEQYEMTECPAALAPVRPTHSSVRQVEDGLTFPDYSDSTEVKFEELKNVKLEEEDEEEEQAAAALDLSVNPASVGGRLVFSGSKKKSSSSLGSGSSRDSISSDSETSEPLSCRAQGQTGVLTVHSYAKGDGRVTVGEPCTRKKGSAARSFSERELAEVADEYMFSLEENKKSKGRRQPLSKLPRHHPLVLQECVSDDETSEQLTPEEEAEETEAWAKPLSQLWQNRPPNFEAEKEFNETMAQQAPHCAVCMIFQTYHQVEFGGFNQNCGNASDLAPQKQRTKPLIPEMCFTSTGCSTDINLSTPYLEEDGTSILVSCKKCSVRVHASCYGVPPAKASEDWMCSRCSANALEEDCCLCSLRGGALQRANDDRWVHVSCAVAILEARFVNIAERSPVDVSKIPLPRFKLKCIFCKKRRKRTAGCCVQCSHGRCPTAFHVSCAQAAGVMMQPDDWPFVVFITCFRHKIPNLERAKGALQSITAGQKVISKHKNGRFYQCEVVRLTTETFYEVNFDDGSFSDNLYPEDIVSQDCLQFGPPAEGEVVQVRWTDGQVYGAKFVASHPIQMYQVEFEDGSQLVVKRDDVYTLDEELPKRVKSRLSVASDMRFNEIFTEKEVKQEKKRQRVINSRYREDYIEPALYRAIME
Chain of Glycogen synthase kinase-3 beta (P49841 whole entry): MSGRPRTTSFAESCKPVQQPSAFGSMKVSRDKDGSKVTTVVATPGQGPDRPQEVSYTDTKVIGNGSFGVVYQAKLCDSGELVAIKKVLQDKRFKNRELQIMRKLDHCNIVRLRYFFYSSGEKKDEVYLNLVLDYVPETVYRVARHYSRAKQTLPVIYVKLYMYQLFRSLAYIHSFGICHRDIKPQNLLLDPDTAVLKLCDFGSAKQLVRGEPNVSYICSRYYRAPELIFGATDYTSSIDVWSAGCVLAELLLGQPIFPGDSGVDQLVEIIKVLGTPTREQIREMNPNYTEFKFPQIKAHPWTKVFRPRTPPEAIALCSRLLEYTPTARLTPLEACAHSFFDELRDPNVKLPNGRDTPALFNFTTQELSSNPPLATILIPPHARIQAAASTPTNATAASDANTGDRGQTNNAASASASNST
Chain of CAAX prenyl protease 1 (P47154 whole entry): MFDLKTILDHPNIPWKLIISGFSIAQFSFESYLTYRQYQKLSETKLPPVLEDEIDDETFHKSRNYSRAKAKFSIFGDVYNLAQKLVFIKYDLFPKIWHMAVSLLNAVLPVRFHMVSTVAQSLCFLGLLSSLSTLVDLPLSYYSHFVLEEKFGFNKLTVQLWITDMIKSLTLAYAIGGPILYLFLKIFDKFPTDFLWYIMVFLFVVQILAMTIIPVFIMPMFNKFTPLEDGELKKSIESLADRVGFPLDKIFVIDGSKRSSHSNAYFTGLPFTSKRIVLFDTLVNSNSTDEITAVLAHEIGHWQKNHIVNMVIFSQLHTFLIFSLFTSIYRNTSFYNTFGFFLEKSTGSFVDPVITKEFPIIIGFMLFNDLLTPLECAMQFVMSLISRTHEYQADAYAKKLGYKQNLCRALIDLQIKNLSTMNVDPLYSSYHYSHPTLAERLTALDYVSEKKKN

**Q.** Which EC50 [1] does the source give for `CCOP1(=O)OCC2OC(n3cnc4c(N)ncnc43)C(O)C2O1` (stereo not given) here?
**A.** 2.68 µM (active)

**Q.** And the EC50 [2]?
**A.** 3.75 µM (active)

**Q.** Which EC50 (HEK293 [3]) does the source give for `Cc1ccc(-n2c(C)c([N+](=O)[O-])c3ccc(O)cc32)cc1` here?
**A.** 16 µM (active)

**Q.** And the IC50 (HEK293 [4])?
**A.** 1.05 µM (active)

**Q.** And the IC50 (HEK293 [5])?
**A.** > 20 µM (inactive)

**Q.** What about the EC50 [6] of the same compound?
**A.** > 20 µM (inactive)

**Q.** What about the IC50 (HEK293 [7]) of the same compound?
**A.** 1.18 µM (active)

**Q.** What about the IC50 (HEK293 [8]) of the same compound?
**A.** > 20 µM (inactive)

**Q.** And the AC50 [9]?
**A.** < 0.068 µM (active)

**Q.** What does the source list for `CCC(Sc1nc(N)c(NC(=O)c2ccc(Br)o2)c(O)n1)C(=O)O` (stereo not given)?
**A.** AC50 [10]: 17.5 µM (active); AC50 [11]: 5.06 µM (active)

**Q.** With `c1cc(CSc2nnc(-c3ccc4c(c3)OCO4)o2)ccn1` as the compound, how does the AC50 (A-375 [12]) read?
**A.** > 35 µM (active)

**Q.** What about the AC50 (A-375 [13]) of the same compound?
**A.** > 35 µM (active)

**Q.** Which AC50 [14] does the source give for `CCCCCCN1C=CC=C/C1=C\C=C(C#N)C#N` here?
**A.** 44.1 µM (active)

**Q.** With `Cc1cc(C)n2cc(CSc3ncccc3C(=O)O)nc2n1` as the compound, how does the AC50 (Trypsin) read?
**A.** 10.8 µM (active)

**Q.** What about the AC50 (CAAX prenyl protease 2) of the same compound?
**A.** 57.7 µM (active)

**Q.** And the AC50 (CAAX prenyl protease 1)?
**A.** 6.59 µM (active)

**Q.** What does the source list for `CCCNC(=O)Cn1nc(-c2ccccc2)c2cc(Cl)ccc21`?
**A.** AC50 (Candida albicans): 83.4 µM (active); AC50 (NIH3T3): 28.9 µM (active)

**Q.** Which results are given for `O=C(Nc1ccccc1)c1ccccc1Br`?
**A.** AC50 [15]: 5.98 µM (active); EC50 [16]: 1.97 µM (active)

**Q.** Which IC50 [17] does the source give for `O=C(CC1C(=O)N(Cc2ccccc2)C(=S)N1CCN1CCOCC1)Nc1ccc(F)cc1` (stereo not given) here?
**A.** > 79.4 µM (inactive)

**Q.** What about the IC50 [18] of the same compound?
**A.** > 79.4 µM (inactive)

**Q.** And the IC50 [19]?
**A.** > 79.4 µM (inactive)

**Q.** And the EC50 [20]?
**A.** > 260 µM (inactive)
